Holding throughout (type): cell-based
The target in one test is T1, mouse GLP2 receptor (Mus musculus, UniProt Q5IXF8).
T1 construct: expressed in transfected cells; host or cells: HEK cells, transient transfection with GeneJuice
T1 sequence (Q5IXF8 1-512): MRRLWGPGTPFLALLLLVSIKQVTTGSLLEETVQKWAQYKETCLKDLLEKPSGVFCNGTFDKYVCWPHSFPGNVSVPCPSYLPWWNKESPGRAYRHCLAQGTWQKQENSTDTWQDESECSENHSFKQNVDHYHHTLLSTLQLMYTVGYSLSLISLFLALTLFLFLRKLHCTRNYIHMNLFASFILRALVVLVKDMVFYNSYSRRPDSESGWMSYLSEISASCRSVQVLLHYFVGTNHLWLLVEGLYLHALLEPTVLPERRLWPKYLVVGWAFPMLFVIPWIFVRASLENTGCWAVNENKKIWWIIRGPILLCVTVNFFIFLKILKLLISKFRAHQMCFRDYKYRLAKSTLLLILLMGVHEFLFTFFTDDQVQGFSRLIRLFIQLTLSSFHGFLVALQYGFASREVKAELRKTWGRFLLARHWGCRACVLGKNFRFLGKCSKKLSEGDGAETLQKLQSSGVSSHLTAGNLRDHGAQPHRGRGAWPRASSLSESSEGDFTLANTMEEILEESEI
In words: cAMP accumulation assay, functional agonism of mouse GLP2 receptor. How it is done: CAMP production upon agonist stimulation of mouse GLP2 or GLP1 receptors was assessed utilizing HiRange cAMP kit (Cisbio). In brief, HEK cells were transiently transfected for 24 hours with cDNA using GeneJuice Transfection reagent (EMD Millipore) and frozen at −80° C. for later use in the assay. On the day, various concentrations of compounds were dispensed using ECHO-555 (LabCyte) to a total volume of 100 nl into a low volume 384-well Proxi plate (Perkin Elmer) followed by addition of 10 μl of cell suspension delivering 8000 cells per well. Cells were prepared in the assay buffer (HBSS (Lonza) supplemented with 0.5 mM IBMX (Tocris)). After 45 min incubation at 37° C., the reaction was stopped by addition of the HTRF detection reagents in the lysis buffer provided in the kit. Following 1-hour incubation at RT, plates were read on Pherastar FS (BMG Labtech, Inc.) using standard HTRF settings. Dotmatics Studies software was used for calculation of pEC50 values by fitting data to a four-parameter concentration response curve.
On the technique in general: cAMP levels reflect the balance of adenylyl cyclase and phosphodiesterase activity.

The target of a further test is T2, human GLP2 receptor (Homo sapiens, UniProt O95838).
T2 construct: expressed in transfected cells; host or cells: HEK cells, BacMam virus transduction
T2 sequence (O95838 1-553): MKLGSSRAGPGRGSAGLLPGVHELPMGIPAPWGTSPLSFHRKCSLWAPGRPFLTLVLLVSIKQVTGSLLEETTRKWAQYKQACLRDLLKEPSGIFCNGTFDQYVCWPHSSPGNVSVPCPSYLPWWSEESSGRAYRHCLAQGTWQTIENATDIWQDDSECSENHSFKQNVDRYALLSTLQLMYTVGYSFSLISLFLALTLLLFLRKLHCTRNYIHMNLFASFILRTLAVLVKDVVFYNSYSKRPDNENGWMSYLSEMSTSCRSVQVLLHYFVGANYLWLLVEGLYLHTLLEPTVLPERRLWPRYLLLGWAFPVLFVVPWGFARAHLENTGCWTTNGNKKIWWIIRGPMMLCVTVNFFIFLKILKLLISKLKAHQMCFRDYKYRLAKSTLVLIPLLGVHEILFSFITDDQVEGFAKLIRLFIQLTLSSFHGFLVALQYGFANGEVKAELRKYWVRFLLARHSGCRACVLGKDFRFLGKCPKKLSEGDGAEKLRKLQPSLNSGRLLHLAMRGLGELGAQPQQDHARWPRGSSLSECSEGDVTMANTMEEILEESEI
Description: cAMP accumulation assay, functional agonism of human GLP2 receptor. Particulars: HEK cells infected with human GLP2 receptor BacMam virus, HTRF cAMP; for Emax: HEK293, read-out: Human GLP-2R agonist cAMP Emax; for EC50: read-out: Human GLP-2R agonist cAMP pEC50 (converted). In a few lines: (§1)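 Steps: infect HEK cells with human GLP1 or GLP2 receptor BacMam for 24 hours; freeze; resuspend in HBSS with 0.5 mM IBMX; incubate with agonist 45 min at 37° C; lyse with HTRF detection reagents and read cAMP.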

The target in a further test is T3, human GLP1 receptor (Homo sapiens, UniProt P43220).
T3 construct: expressed in transfected cells; host or cells: HEK cells, BacMam virus transduction
T3 sequence (P43220 24-463): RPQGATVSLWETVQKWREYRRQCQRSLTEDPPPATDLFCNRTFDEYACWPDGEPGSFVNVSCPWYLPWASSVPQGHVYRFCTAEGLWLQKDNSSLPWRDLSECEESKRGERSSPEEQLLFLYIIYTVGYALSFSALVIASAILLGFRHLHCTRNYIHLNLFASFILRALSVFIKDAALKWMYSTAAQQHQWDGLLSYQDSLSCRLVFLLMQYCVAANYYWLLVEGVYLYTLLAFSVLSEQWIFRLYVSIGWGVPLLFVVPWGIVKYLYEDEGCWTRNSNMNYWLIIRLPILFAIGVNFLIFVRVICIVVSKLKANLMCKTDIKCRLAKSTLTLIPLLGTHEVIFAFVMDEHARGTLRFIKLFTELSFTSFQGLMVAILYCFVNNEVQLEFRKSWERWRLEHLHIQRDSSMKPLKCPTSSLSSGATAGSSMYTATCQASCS
Description: cAMP accumulation assay, functional agonism of human GLP1 receptor. The following applies: HEK cells infected with human GLP1 receptor BacMam virus, HTRF cAMP; for Emax: HEK293, read-out: Human GLP-1R agonist cAMP Emax; for EC50: read-out: Human GLP-1R agonist cAMP pEC50 (converted). The procedure, abridged:
as §1

Structures are written as SMILES. Read-outs that look alike come from different tables or passages of the source. Positions of bridges follow the written chain, without caps; N, C: chain ends. Non-standard residues stand in square brackets, D forms with d. Residues, ends and D or L forms follow the SMILES beside them. *: point of attachment. Malonyl(2,2-Me2,histaminyl) = CC(C)(C(=O)NCCc1cnc[nH]1)C(=O)*; Ala(1H-tetrazol-5-yl) = N[C@@H](Cc1nnn[nH]1)C(=O)O; αMePhe(2-F) = C[C@](N)(Cc1ccccc1F)C(=O)O; αMeL = CC(C)C[C@](C)(N)C(=O)O; Nle = CCCC[C@H](N)C(=O)O; Aib = CC(C)(N)C(=O)O

As to `CCCC[C@H](NC(=O)[C@H](CCC(=O)O)NC(=O)[C@@H]1CCCCNC(=O)CC[C@H](NC(=O)[C@H](Cc2nn[nH]n2)NC(=O)C(C)(C)C(=O)NCCc2c[nH]cn2)C(=O)N[C@@H](CO)C(=O)N[C@@H](Cc2ccccc2)C(=O)N[C@@H](CO)C(=O)N1)C(=O)N[C@H](Cc1ccccc1)C(=O)N[C@H]1CCC(=O)NCCCC[C@@H](C(=O)N[C@H]2CCC(=O)NCCCC[C@@H](C(=O)N[C@@H](CC(=O)O)C(=O)N[C@@H](Cc3ccccc3)C(=O)N[C@H](C(=O)N[C@H]3CCC(=O)NCCCC[C@@H](C(=O)N[C@H]4CCCCNC(=O)CC[C@@H](C(N)=O)NC(=O)[C@H]([C@@H](C)O)NC(=O)[C@H]([C@@H](C)CC)NC(=O)[C@H](CCCCN)NC4=O)NC(=O)[C@H]([C@@H](C)CC)NC(=O)[C@H](CC(C)C)NC(=O)[C@H](Cc4c[nH]c5ccccc45)NC3=O)[C@@H](C)CC)NC(=O)[C@H](C)NC(=O)[C@H](C)NC2=O)NC(=O)[C@H](CC(=O)O)NC(=O)[C@H](CC(C)C)NC(=O)[C@H]([C@@H](C)CC)NC1=O` [Example 78], the Emax – broadly, the greatest response seen or fitted, relative to the assay's reference – at mouse GLP2 receptor (HEK293, HEK cells transiently transfected with mouse GLP2 receptor, HTRF cAMP, read-out: Mouse GLP-2R agonist cAMP Emax) is 83.1%; on human GLP2 receptor it was 103%; on human GLP1 receptor, 95.5%. Further, the EC50 was 2 nM on mouse GLP2 receptor (HEK cells transiently transfected with mouse GLP2 receptor, HTRF cAMP, read-out: Mouse GLP-2R agonist cAMP pEC50 (converted)); 0.0251 nM at human GLP2 receptor; 0.251 nM at human GLP1 receptor.

Take `CCCC[C@@H]1NC(=O)[C@H](CCC(=O)O)NC(=O)[C@H](CC(=O)O)NC(=O)[C@@H](NC(=O)[C@H](Cc2ccccc2)NC(=O)[C@H](CO)NC(=O)CNC(=O)[C@H](CC(=O)O)NC(=O)C(C)(C)NC(=O)[C@@H](N)Cc2c[nH]cn2)CCC(=O)NCCCC[C@@H](C(=O)N[C@H]2CCC(=O)NCCCC[C@@H](C(=O)N[C@H]3CCC(=O)NCCCC[C@@H](C(=O)N[C@@H](CC(=O)O)C(=O)N[C@@H](Cc4ccccc4)C(=O)N[C@H](C(=O)N[C@H]4CCC(=O)NCCCC[C@@H](C(=O)N[C@H]5CCCCNC(=O)CC[C@@H](C(N)=O)NC(=O)[C@H]([C@@H](C)O)NC(=O)[C@H]([C@@H](C)CC)NC(=O)[C@H](CCCCN)NC5=O)NC(=O)[C@H]([C@@H](C)CC)NC(=O)[C@H](CC(C)C)NC(=O)[C@H](Cc5c[nH]c6ccccc56)NC4=O)[C@@H](C)CC)NC(=O)[C@H](C)NC(=O)[C@H](C)NC3=O)NC(=O)[C@H](CC(=O)O)NC(=O)[C@H](CC(C)C)NC(=O)[C@H]([C@@H](C)CC)NC2=O)NC1=O` [Example 76] (H-H[Aib]DGSFEDE[Nle]KEILDKEAAKDFIEWLIKKKITE-NH2; lactam 7-11, 12-16, 17-20, 24-28, 29-33 (inferred)): the EC50 on mouse GLP2 receptor was 1.26 nM; on human GLP2 receptor it was 0.0126 nM; on human GLP1 receptor, 1 nM. Moreover, the maximal response (Emax) worked out at 102% at mouse GLP2 receptor (HEK293, read-out: Mouse GLP-2R agonist cAMP Emax); 102% at human GLP2 receptor; 94.9% on human GLP1 receptor.

In the case of `CCCC[C@@H]1NC(=O)[C@H](CCC(=O)O)NC(=O)[C@@H](NC(=O)[C@H](CO)NC(=O)[C@](C)(Cc2ccccc2F)NC(=O)[C@H](CO)NC(=O)[C@@H](C)NC(=O)[C@H](CCC(N)=O)NC(=O)C(C)(C)C(=O)NCCc2c[nH]cn2)CCCCNC(=O)C[C@@H](C(=O)N[C@H](C(=O)N[C@@H](CC(C)C)C(=O)N[C@@H](CC(=O)O)C(=O)N[C@H]2CCC(=O)NCCCC[C@@H](C(=O)N[C@@H](CC(=O)O)C(=O)N[C@@H](Cc3ccccc3)C(=O)N[C@H](C(=O)N[C@H]3CCCCNC(=O)C[C@@H](C(=O)N[C@H]4CCC(=O)NCCCC[C@@H](C(N)=O)NC(=O)[C@H]([C@@H](C)O)NC(=O)[C@H]([C@@H](C)CC)NC(=O)[C@H](CCCCN)NC4=O)NC(=O)[C@H]([C@@H](C)CC)NC(=O)[C@H](CC(C)C)NC(=O)[C@H](Cc4c[nH]c5ccccc45)NC3=O)[C@@H](C)CC)NC(=O)[C@H](C)NC(=O)[C@H](C)NC(=O)[C@H](CCCCN)NC2=O)[C@@H](C)CC)NC(=O)[C@@H](Cc2ccccc2)NC1=O` [Example 54] ({Malonyl(2,2-Me2,histaminyl)}-Q[dA]S[αMePhe(2-F)]SKE[Nle][dF]DILDEKAAKDFIKWLIDEKITK-NH2; lactam 6-10, 14-18, 22-26, 27-31 (inferred); C-terminus assumed), the Emax on human GLP2 receptor stood at 101%; on human GLP1 receptor it was 88.8%. Also, the EC50 was 0.0316 nM on human GLP2 receptor and 0.631 nM at human GLP1 receptor.

Turning to `CCCC[C@@H]1NC(=O)[C@H](CCC(=O)O)NC(=O)[C@@H](NC(=O)[C@H](CO)NC(=O)[C@H](Cc2ccccc2)NC(=O)[C@H](CO)NC(=O)CNC(=O)[C@H](Cc2nn[nH]n2)NC(=O)C(C)(C)C(=O)NCCc2c[nH]cn2)CCCCNC(=O)C[C@@H](C(=O)N[C@H](C(=O)N[C@@H](CC(C)C)C(=O)N[C@@H](CC(=O)O)C(=O)N[C@H]2CCC(=O)NCCCC[C@@H](C(=O)N[C@@H](CC(=O)O)C(=O)N[C@@H](Cc3ccccc3)C(=O)N[C@H](C(=O)N[C@@H](CC(N)=O)C(=O)N[C@@H](Cc3c[nH]c4ccccc34)C(=O)N[C@@H](CC(C)C)C(=O)N[C@H](C(=O)N[C@@H](CCC(N)=O)C(=O)N[C@H](C(=O)N[C@H]3CCC(=O)NCCCC[C@@H](C(N)=O)NC(=O)[C@H]([C@@H](C)O)NC(=O)[C@H]([C@@H](C)CC)NC3=O)[C@@H](C)O)[C@@H](C)CC)[C@@H](C)CC)NC(=O)C(C)(C)NC(=O)C(C)(C)NC(=O)[C@H](CCCCN)NC2=O)[C@@H](C)CC)NC(=O)[C@@H](Cc2ccccc2)NC1=O` [Example 16] ({Malonyl(2,2-Me2,histaminyl)}-[Ala(1H-tetrazol-5-yl)]GSFSKE[Nle][dF]DILDEK[Aib][Aib]KDFINWLIQTEITK-NH2; lactam 6-10, 14-18, 28-31; C-terminus assumed), the Emax at human GLP2 receptor was 104%; on human GLP1 receptor it was 94.1%. In addition, the values for the EC50 at human GLP2 receptor and on human GLP1 receptor were 0.251 nM and 0.631 nM, respectively.

Regarding `CCCC[C@H](NC(=O)[C@H](CCC(=O)O)NC(=O)[C@@H]1CC(=O)NCCCC[C@H](NC(=O)[C@H](CCC(N)=O)NC(=O)C(C)(C)C(=O)NCCc2c[nH]cn2)C(=O)N[C@@H](CO)C(=O)N[C@@H](Cc2ccccc2)C(=O)N[C@@H](CO)C(=O)N1)C(=O)N[C@H](Cc1ccccc1)C(=O)N[C@H](C(=O)N[C@@](C)(CC(C)C)C(=O)N[C@@H](CC(C)C)C(=O)N[C@@H](CC(=O)O)C(=O)N[C@H]1CCC(=O)NCCCC[C@@H](C(=O)N[C@@H](CC(=O)O)C(=O)N[C@@H](Cc2ccccc2)C(=O)N[C@H](C(=O)N[C@H]2CCC(=O)NCCCC[C@@H](C(=O)N[C@H]3CCC(=O)NCCCC[C@@H](C(N)=O)NC(=O)[C@H]([C@@H](C)O)NC(=O)[C@H]([C@@H](C)CC)NC(=O)[C@H](CCCCN)NC3=O)NC(=O)[C@H]([C@@H](C)CC)NC(=O)[C@H](CC(C)C)NC(=O)[C@H](Cc3c[nH]c4ccccc34)NC2=O)[C@@H](C)CC)NC(=O)[C@H](C)NC(=O)[C@H](C)NC(=O)[C@H](CCCCN)NC1=O)[C@@H](C)O` [Example 69] ({Malonyl(2,2-Me2,histaminyl)}-QKSFSDE[Nle][dF]T[αMeL]LDEKAAKDFIEWLIKEKITK-NH2; lactam 2-6, 14-18, 22-26, 27-31 (inferred); C-terminus assumed), on human GLP2 receptor, the Emax amounted to 95% and the EC50 is 0.501 nM. Further, on human GLP1 receptor, the Emax was found to be 83.7% and the EC50 was 6.31 nM.

The record behind these values is patent US20240270809A1, “ORAL GLP RECEPTOR AGONISTS” (priority 2020, published 2024).
